Experimental data taken from ChEMBL document CHEMBL1201862, “PubChem BioAssay data set” (2004).
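Exposure lasted 48 hours, with cells grown in 96-well plates and compounds tested at five concentrations. Abbreviation: GI50, concentration required for 50% inhibition of growth.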 Active and inactive are the calls of the source. Cut-off read from the data, not from the text of the source: active = GI50 up to about 1.1 µM and inactive = higher.

Assays:
Assay in all cases: inhibition of tumour cell growth, NCI panel, 48 h
SW-620 = system: SW-620
Malme-3M = system: Malme-3M
U-251 = system: U-251
COLO 205 = system: COLO 205
HL-60 = system: HL-60
UACC-62 = system: UACC-62
UACC-257 = system: UACC-257
HCT-15 = system: HCT-15
SF-539 = system: SF-539
SK-OV-3 = system: SK-OV-3
NCI-H23 = system: NCI-H23
LXFL 529 = system: LXFL 529
M14 = system: M14
PC-3 = system: PC-3
A498 = system: A498
ACHN = system: ACHN
MDA-MB-231 = system: MDA-MB-231
MDA-N = system: MDA-N
MDA-MB-435 = system: MDA-MB-435
HCT-116 = system: HCT-116

SMILES	GI50 (SW-620)	GI50 (Malme-3M)	GI50 (U-251)	GI50 (COLO 205)	GI50 (HL-60)	GI50 (UACC-62)	GI50 (UACC-257)	GI50 (HCT-15) [µM]	GI50 (SF-539)	GI50 (SK-OV-3)	GI50 (NCI-H23)	GI50 (LXFL 529)	GI50 (M14)	GI50 (PC-3)	GI50 (A498)	GI50 (ACHN)	GI50 (MDA-MB-231)	GI50 (MDA-N)	GI50 (MDA-MB-435)	GI50 (HCT-116)
COc1cc(OC)c2c(=O)c3cccc([N+](=O)[O-])c3n(C)c2c1	> 100 µM (inactive)	> 100 µM (inactive)	> 100 µM (inactive)	> 100 µM (inactive)	31.3 µM (inactive)	> 100 µM (inactive)	87.9 µM (inactive)	> 100	74 µM (inactive)	> 100 µM (inactive)	77.8 µM (inactive)	> 100 µM (inactive)	> 100 µM (inactive)	–	–	–	–	–	–	–
Cc1[nH]n(-c2nc3c(c(=O)[nH]2)CCCC3)c(=O)c1CCO	> 100 µM (inactive)	> 100 µM (inactive)	> 100 µM (inactive)	> 100 µM (inactive)	> 100 µM (inactive)	> 100 µM (inactive)	> 100 µM (inactive)	> 100	> 100 µM (inactive)	> 100 µM (inactive)	> 100 µM (inactive)	–	> 100 µM (inactive)	> 100 µM (inactive)	> 100 µM (inactive)	> 100 µM (inactive)	> 100 µM (inactive)	> 100 µM (inactive)	> 100 µM (inactive)	> 100 µM (inactive)
C=CCNC(=S)NC=C(C(N)=O)C(N)=O	> 100 µM (inactive)	> 100 µM (inactive)	> 100 µM (inactive)	> 100 µM (inactive)	> 100 µM (inactive)	> 100 µM (inactive)	> 100 µM (inactive)	> 100	> 100 µM (inactive)	> 100 µM (inactive)	> 100 µM (inactive)	–	> 100 µM (inactive)	> 100 µM (inactive)	< 0.01 µM (active)	> 100 µM (inactive)	> 100 µM (inactive)	> 100 µM (inactive)	> 100 µM (inactive)	> 100 µM (inactive)
Cc1ccc(-c2cc(-c3ccco3)nc(N)n2)o1	> 100 µM (inactive)	> 100 µM (inactive)	–	> 100 µM (inactive)	> 100 µM (inactive)	> 100 µM (inactive)	–	> 100	> 100 µM (inactive)	–	> 100 µM (inactive)	> 100 µM (inactive)	> 100 µM (inactive)	–	–	> 100 µM (inactive)	–	–	–	> 100 µM (inactive)
CCOC(=O)c1[nH]cc(C)c1-c1c[nH]c2ccccc12	27.9 µM (inactive)	42.7 µM (inactive)	19.7 µM (inactive)	15.4 µM (inactive)	6.44 µM (inactive)	14.4 µM (inactive)	26.2 µM (inactive)	8.81	22.8 µM (inactive)	32.3 µM (inactive)	27.2 µM (inactive)	–	24.9 µM (inactive)	14 µM (inactive)	59.6 µM (inactive)	23 µM (inactive)	9.57 µM (inactive)	24.9 µM (inactive)	26 µM (inactive)	6.93 µM (inactive)
CCOC(=O)C/N=c1\nc(SC)sc2c(C(=O)OCC)nc(Sc3ccccc3)n12	> 100 µM (inactive)	32.6 µM (inactive)	–	> 100 µM (inactive)	> 100 µM (inactive)	> 100 µM (inactive)	28.6 µM (inactive)	–	–	> 100 µM (inactive)	–	14.8 µM (inactive)	> 100 µM (inactive)	–	–	–	–	–	–	32.1 µM (inactive)
COc1cc2cc(C(=O)N3CC(CCl)c4ccc(NCCN)cc43)[nH]c2c(OC)c1OC (stereo unspecified)	0.151 µM (active)	0.172 µM (active)	0.175 µM (active)	0.222 µM (active)	0.0319 µM (active)	0.111 µM (active)	0.251 µM (active)	0.377	0.209 µM (active)	0.282 µM (active)	0.0822 µM (active)	–	0.198 µM (active)	0.117 µM (active)	0.184 µM (active)	0.08 µM (active)	0.223 µM (active)	0.176 µM (active)	0.2 µM (active)	0.217 µM (active)
O=C1NCC(CSc2nc3cc(C4CCCc5c4[nH]c4ccccc54)ccc3o2)N1 (stereo unspecified)	39.4 µM (inactive)	53.7 µM (inactive)	51.5 µM (inactive)	61.4 µM (inactive)	43.9 µM (inactive)	39.6 µM (inactive)	45.1 µM (inactive)	24.5	36.4 µM (inactive)	> 100 µM (inactive)	32.5 µM (inactive)	–	45.1 µM (inactive)	37.2 µM (inactive)	18 µM (inactive)	34.2 µM (inactive)	23.1 µM (inactive)	42.8 µM (inactive)	30.9 µM (inactive)	33.4 µM (inactive)
O=S(=O)(O)c1ccc2c(/N=N/c3ccc(S(=O)(=O)O)c4ccccc34)c(O)c(S(=O)(=O)O)cc2c1	> 100 µM (inactive)	> 100 µM (inactive)	> 100 µM (inactive)	> 100 µM (inactive)	> 100 µM (inactive)	> 100 µM (inactive)	> 100 µM (inactive)	> 100	> 100 µM (inactive)	> 100 µM (inactive)	> 100 µM (inactive)	–	> 100 µM (inactive)	> 100 µM (inactive)	> 100 µM (inactive)	> 100 µM (inactive)	> 100 µM (inactive)	> 100 µM (inactive)	> 100 µM (inactive)	> 100 µM (inactive)
O=C(O)C[S+]([O-])c1ccc2c3c(cccc13)C(=O)c1ccccc1-2 (stereo unspecified)	> 100 µM (inactive)	> 100 µM (inactive)	> 100 µM (inactive)	> 100 µM (inactive)	> 100 µM (inactive)	> 100 µM (inactive)	> 100 µM (inactive)	> 100	> 100 µM (inactive)	> 100 µM (inactive)	> 100 µM (inactive)	–	> 100 µM (inactive)	> 100 µM (inactive)	> 100 µM (inactive)	> 100 µM (inactive)	> 100 µM (inactive)	> 100 µM (inactive)	> 100 µM (inactive)	> 100 µM (inactive)
N#Cc1ncc(C(Cl)Cl)nc1Cl	1.94 µM (inactive)	2.43 µM (inactive)	1.97 µM (inactive)	1.77 µM (inactive)	0.748 µM (active)	2.17 µM (inactive)	1.53 µM (inactive)	1.82	1.73 µM (inactive)	3.78 µM (inactive)	2.12 µM (inactive)	–	1.13 µM (inactive)	1.8 µM (inactive)	> 10 µM (inactive)	2.04 µM (inactive)	1.74 µM (inactive)	1.5 µM (inactive)	1.76 µM (inactive)	1.67 µM (inactive)
[O-][S+](Cc1ccccc1)c1nc2ccccc2nc1-c1cccs1 (stereo unspecified)	–	6.18 µM (inactive)	18.4 µM (inactive)	20 µM (inactive)	3.49 µM (inactive)	–	13.2 µM (inactive)	9.29	16.4 µM (inactive)	29 µM (inactive)	13.8 µM (inactive)	3.22 µM (inactive)	11 µM (inactive)	–	–	13.9 µM (inactive)	–	–	–	10.4 µM (inactive)
CN(C)CCNc1ccc(CO)c2oc3ccc(O)cc3c(=O)c12	8.97 µM (inactive)	13.5 µM (inactive)	12.4 µM (inactive)	8.97 µM (inactive)	10.8 µM (inactive)	11.5 µM (inactive)	12.8 µM (inactive)	14.4	12.3 µM (inactive)	14.4 µM (inactive)	11.5 µM (inactive)	–	15.7 µM (inactive)	12.7 µM (inactive)	12.7 µM (inactive)	7.45 µM (inactive)	17 µM (inactive)	12.8 µM (inactive)	13.8 µM (inactive)	6.4 µM (inactive)
O=c1/c(=C/c2ccc(-c3ccc(Cl)cc3Cl)o2)sc2n1[C@@H](c1ccc(Cl)cc1)C=C(c1cc(F)c(Cl)cc1Cl)N=2	33.6 µM (inactive)	> 100 µM (inactive)	31.5 µM (inactive)	78.5 µM (inactive)	< 0.01 µM (active)	25 µM (inactive)	34.6 µM (inactive)	35.6	34.8 µM (inactive)	19.2 µM (inactive)	36.6 µM (inactive)	–	> 100 µM (inactive)	> 100 µM (inactive)	2.05 µM (inactive)	> 100 µM (inactive)	23.6 µM (inactive)	53.8 µM (inactive)	54.3 µM (inactive)	37.9 µM (inactive)
N#Cc1c(N)nc(SCc2ccccc2)c(C#N)c1-c1ccc(O)cc1	15.2 µM (inactive)	15.3 µM (inactive)	13.9 µM (inactive)	15.6 µM (inactive)	11.3 µM (inactive)	15.7 µM (inactive)	> 37.5 µM (inactive)	11.2	19.5 µM (inactive)	15.5 µM (inactive)	15.9 µM (inactive)	–	14.2 µM (inactive)	15.5 µM (inactive)	13.1 µM (inactive)	13.2 µM (inactive)	12.3 µM (inactive)	13 µM (inactive)	11.6 µM (inactive)	11.5 µM (inactive)
CCCCCCCCCCCC(=O)N(CCCCCCCCCCC(=O)O)CC(O)C(O)C(OC1OC(CO)C(O)C(O)C1O)C(O)CO (stereo unspecified)	> 100 µM (inactive)	> 100 µM (inactive)	> 100 µM (inactive)	> 100 µM (inactive)	> 100 µM (inactive)	> 100 µM (inactive)	> 100 µM (inactive)	> 100	> 100 µM (inactive)	> 100 µM (inactive)	> 100 µM (inactive)	–	> 100 µM (inactive)	> 100 µM (inactive)	> 100 µM (inactive)	> 100 µM (inactive)	> 100 µM (inactive)	> 100 µM (inactive)	> 100 µM (inactive)	> 100 µM (inactive)
